Measured values from US9138438B2, “Method for protecting a retinal neuronal cell” (ASAHI GLASS COMPANY, LIMITED, priority 2005, dated 2015).

System: rat fetal retinal neuronal cells
Test: Glutamate-induced retinal neuronal cell death, trypan blue survival rate
Type: cell-based
Conditions: test compound 0.1 nM to 100 nM; 24 hours pre-incubation, 1 mM glutamate 10 minutes, then 1 hour with test compound; survival rate by trypan blue
Experimental: In order to find a new pharmaceutical application of a prostaglandin F2α derivative, by using rat fetal retinal neuronal cells, an effect of a prostaglandin F2α derivative on protecting retinal neuronal cells against glutamate-induced retinal neuronal cell death was evaluated and examined.
Incidentally, as the prostaglandin F2α derivative which is a test compound, 16-phenoxy-15-deoxy-15,15-difluoro-17,18,19,20-tetranor-prostaglandin F2α was used.
A pregnant SD rat was subjected to laparotomy under systemic anesthesia, and the uterus was transferred to a dish containing Hanks's balanced salt solution (HBSS). A rat fetus was isolated from the uterus, and the eyeballs of the rat fetus were taken out. The retina was isolated from the eyeballs under a stereoscopic microscope and cut into pieces with a surgical knife. […] After the cell number was counted with a hemocytometer, an MEM medium containing 10% FBS was added thereto, whereby a cell suspension with a cell density of 0.8×10^6 cells/mL was obtained. […]
At day 10 of culture, the plastic discs in which cells were inoculated and cultured were transferred to the HS-containing MEM medium containing the test compound and incubated for 24 hours (37° C., 5% CO2). […] After the cells were washed with a physiological saline solution, stained cells and unstained cells were counted under an inverted microscope. […]

SMILES: O=C(O)CCC/C=C\C[C@@H]1[C@@H](/C=C/C(F)(F)COc2ccccc2)[C@H](O)C[C@@H]1O [test compound, 16-phenoxy-15-deoxy-15,15-difluoro-17,18,19,20-tetranor-prostaglandin F2α]
- glutamate-induced retinal neuronal cell death: inhibited in a concentration-dependent manner
